Where “and” joins values, the source holds several entries; their conditions need not be identical. Identical values can stand only once. Non-standard residues stand in square brackets, D forms with d. Residues, ends and D or L forms follow the SMILES beside them. *: point of attachment. sY = N[C@@H](Cc1ccc(OS(=O)(=O)O)cc1)C(=O)O; OCH2CH2Ph = c1ccc(CCO*)cc1; Nle = CCCC[C@H](N)C(=O)O
T1: type 1 cholecystokinin receptor (CCK1R) (UniProt P32238)
T1 sequence: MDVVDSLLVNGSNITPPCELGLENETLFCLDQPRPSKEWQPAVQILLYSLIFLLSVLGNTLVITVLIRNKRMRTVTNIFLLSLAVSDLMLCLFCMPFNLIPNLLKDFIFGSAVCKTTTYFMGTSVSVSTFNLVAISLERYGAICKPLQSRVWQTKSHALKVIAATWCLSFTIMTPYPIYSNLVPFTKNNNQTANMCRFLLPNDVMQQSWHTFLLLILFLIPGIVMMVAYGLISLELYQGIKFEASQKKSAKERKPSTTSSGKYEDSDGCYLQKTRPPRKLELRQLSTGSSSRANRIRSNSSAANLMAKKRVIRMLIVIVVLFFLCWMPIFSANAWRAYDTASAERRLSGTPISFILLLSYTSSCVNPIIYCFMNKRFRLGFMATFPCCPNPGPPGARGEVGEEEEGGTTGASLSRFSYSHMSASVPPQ

T2: CCK1R (Homo sapiens, UniProt P32238)
T2 sequence (P32238 1-428): T1 sequence


Tests used:
[1] = target: T1, type 1 cholecystokinin receptor (CCK1R)
CCK1R [2] = target: T2, CCK1R; assay: Intracellular calcium assay (Fura-8-AM) in CHO-CCK1R cells; type: cell-based; set-up: expressed in transfected cells; conditions: CHO-CCK1R cells, agonist alone; mean ± SEM
Method: Biological activity was quantified in the CHO cell lines described above using intracellular calcium assays that were performed, as previously described, using Fura-8-AM (AAT Bioquest, Pleasonton, CA, USA). Full agonist dose–response curves were performed along with determination of maximal responses to 0.1 mM ATP, targeting an endogenous receptor present on the parental cells. Concentration–response curves of peak intracellular calcium responses were analyzed and plotted as percentages of maximal responses using non-linear regression analysis in Prism 9.1 (GraphPad).

CCK1R [3] = target: T2, CCK1R; assay: IP-One accumulation TR-FRET assay, agonist format, HEK-293 CCK1R cells; type: cell-based; set-up: expressed in transfected cells; host or cells: HEK-293; conditions: for Emax: HEK293, relative to CCK control, read-out: CCK1R Ago (IP-One) Emax
How it was run: (§1)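 HEK-293 cells overexpressing CCK1R were plated overnight, then given compounds (top 50 µM, 16-point 2-fold) for 30 min at 37 °C. CCK stimulator with 50 mM LiCl (PAM format) or DMSO (agonist format) followed for 1 h. IP-One was read by TR-FRET; activity score = CCK-normalized Emax × pEC50.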

CCK1R [4] = target: T2, CCK1R; assay: IP-One accumulation TR-FRET assay, PAM format, HEK-293 CCK1R cells; type: cell-based; set-up: expressed in transfected cells; host or cells: HEK-293; conditions: for Emax: HEK293, relative to CCK control; for Emax / CCK1R PAM (IP-One) Score (activity score = normalized Emax × pEC50) / EC50: HEK-293 CCK1R cells; for Emax / CCK1R PAM (IP-One) Score (activity score = normalized Emax × pEC50): PAM format; for Emax / EC50: average ± SD; for EC50: PAM format with EC20 CCK; for CCK1R IP-One activity (in words): PAM and agonist formats
How it was run: as §1

[5] = target: T3, vasopressin-2 receptor (AVP2R) (Homo sapiens, UniProt P30518); assay: AVP2R cAMP HTRF accumulation assay; type: cell-based; conditions: for AVP2R PAM (cAMP) Score (activity score = normalized Emax × pEC50) / EC50 / Emax: CHO-K1 AVP2R cells; for AVP2R PAM (cAMP) Score (activity score = normalized Emax × pEC50) / AVP2R cAMP response (in words): PAM format; for EC50 / Emax: PAM format with vasopressin, original hits: agonist and PAM data combined, average ± SD
T3 construct: expressed in transfected cells; host or cells: CHO-K1 (PAM format); HEK-293 (agonist format)
T3 sequence (P30518 whole entry): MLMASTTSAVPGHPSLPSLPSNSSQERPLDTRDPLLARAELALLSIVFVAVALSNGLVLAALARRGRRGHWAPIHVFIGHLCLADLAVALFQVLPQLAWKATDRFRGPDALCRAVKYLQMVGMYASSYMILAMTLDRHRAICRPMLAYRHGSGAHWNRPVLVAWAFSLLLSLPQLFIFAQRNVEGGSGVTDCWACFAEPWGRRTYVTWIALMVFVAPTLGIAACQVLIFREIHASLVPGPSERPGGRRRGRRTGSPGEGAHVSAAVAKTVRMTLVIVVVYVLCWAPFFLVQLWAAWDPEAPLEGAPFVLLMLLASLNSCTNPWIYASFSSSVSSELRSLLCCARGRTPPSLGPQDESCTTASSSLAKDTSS
How it was run: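 CHO-K1 AVP2R cells (PAM format) or HEK-293 AVP2R cells (agonist format) incubated 30 min at room temperature with compounds and vasopressin in HBSS with 5 mM HEPES, 0.5 mM IBMX, 0.075% BSA. cAMP read by HTRF after 30 min; 16-point 2-fold dose–response in duplicate.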

Row | pEC50 of intracellular calcium response (Fura-8-AM), CHO-CCK1R cells [1] | pEC50 of intracellular calcium response (Fura-8-AM), CHO-CCK1R cells, with 10 µM hit 1 [1] | pEC50 of intracellular calcium response (Fura-8-AM), CHO-CCK1R cells, with 10 µM hit 6 [1] | pEC50 agonist-induced intracellular calcium response (CCK1R [2]) | CCK1R Ago (IP-One) Score (activity score = normalized Emax × pEC50) (CCK1R [3]) | Emax (CCK1R [3]; average ± SD) [%] | Emax (CCK1R [4]) [%] | CCK1R PAM (IP-One) Score (activity score = normalized Emax × pEC50) (CCK1R [4]) | EC50 (CCK1R [4]) [µM] | AVP2R PAM (cAMP) Score (activity score = normalized Emax × pEC50) [5] | EC50 [5] [µM] | Emax [5] [%] | CCK1R IP-One activity (in words) (CCK1R [4]) | EC50 (CCK1R [3]; average ± SD, read-out: CCK1R Ago (IP-One) EC50) [µM] | Molecule | AVP2R cAMP response (in words) [5]
1 | – | – | – | 7.3 ± 0.2 | – | – | – | – | – | – | – | – | – | – | CCCC[C@H](NC(=O)[C@H](Cc1ccc(OS(=O)(=O)O)cc1)NC(=O)[C@H](CC(=O)O)NC(=O)CNC(=O)[C@H](N)Cc1ccc(O)cc1)C(=O)NCC(=O)N[C@@H](Cc1c[nH]c2ccccc12)C(=O)N[C@@H](CCCC)C(=O)N[C@@H](CC(=O)O)C(=O)OCCc1ccccc1 [CCK-OPE, D-Tyr-Gly-[(Nle^28,31)CCK-26-32]-phenethyl ester, reference compound] (H-[dY]GD[sY][Nle]GW[Nle]D-OCH2CH2Ph; N-terminus assumed) | –
2 | – | – | – | – | 0 | 0 | 0 | 0 | – | 0 | – | 0 | significantly diminished responses | – | CCN(CC)c1ncnc2c1sc1nc(N3CCOCC3)c3c(c12)CCCC3 [CMP-46] | –
3 | – | – | – | – | 0 | 0 | 57 ± 27 | 2.6 and 2.58 | 13.8 ± 3.2 | 1.7 and 1.67 | 9.9 ± 0.5 | 33 ± 1 | – | – | CCN(CC)CCNc1ncnc2c1sc1nc(N3CCCCC3)c3c(c12)CCCC3 [CMP-6] | –
4 | – | – | – | – | 1.0 and 0.96 | 21 ± 2 | 45 ± 6 | 2.3 and 2.27 | 9.1 ± 4.8 | 2.4 and 2.44 | 3.2 ± 1.1 | 44 ± 8 | – | 27.1 ± 15.3 | CCN(CC)CCNc1ncnc2c1sc1nc(-c3ccccc3)c3c(c12)CCCC3 [CMP-11] | –
5 | – | – | – | – | 0 | 0 | 0 | 0 | – | 0 | – | 0 | – | – | CCOC(=O)N1CCN(c2ncnc3c2oc2nc(CC(C)C)c4c(c23)CCCC4)CC1 [CMP-55] | –
6 | – | – | – | – | 0 | 0 | 38 ± 14 | 1.7 | 18.4 ± 8.1 | 3.5 and 3.51 | 9.1 ± 1 | 70 ± 4 | – | – | CN(C)CCNc1nnnc2c1sc1nc(N3CCCCC3)c3c(c12)CCCC3 [CMP-27] | –
7 | – | – | – | – | 0 | – | 41 ± 34 | 1.52 | 23.9 ± 25.8 | 1.67 | 9.3 ± 11.1 | 33 ± 26 | – | – | CCCCc1nc2sc3c(NCCN4CCOCC4)ncnc3c2c2c1CCCC2 [CMP-32] | –
8 | 9.6 | 10.7 | 10.7 | – | – | – | – | – | – | – | – | – | – | – | KAPSGRMSIVKNLQNLDPSHRISDRDYMGWMDF [CCK-33] | –

The next lines start with the molecule.

Row | Molecule | pEC50 of intracellular calcium response (Fura-8-AM), CHO-CCK1R cells [1] | pEC50 of intracellular calcium response (Fura-8-AM), CHO-CCK1R cells, with 10 µM hit 1 [1] | pEC50 of intracellular calcium response (Fura-8-AM), CHO-CCK1R cells, with 10 µM hit 6 [1] | pEC50 agonist-induced intracellular calcium response (CCK1R [2]) | CCK1R Ago (IP-One) Score (activity score = normalized Emax × pEC50) (CCK1R [3]) | Emax (CCK1R [3]; average ± SD) [%] | Emax (CCK1R [4]) [%] | CCK1R PAM (IP-One) Score (activity score = normalized Emax × pEC50) (CCK1R [4]) | EC50 (CCK1R [4]) [µM] | AVP2R PAM (cAMP) Score (activity score = normalized Emax × pEC50) [5] | EC50 [5] [µM] | Emax [5] [%] | CCK1R IP-One activity (in words) (CCK1R [4]) | EC50 (CCK1R [3]; average ± SD, read-out: CCK1R Ago (IP-One) EC50) [µM] | AVP2R cAMP response (in words) [5]
9 | D-Tyr-Gly-[(Nle^28,31)CCK-26-32]-phenethyl ester (peptide) | 7.3 | 8 | 8.1 | – | – | – | – | – | – | – | – | – | – | – | –
10 | CN(C)CCNc1ncnc2c1sc1nc(N3CCCCC3)c3c(c12)CCCC3 [CMP-35] | – | – | – | – | 0 | 0 | 36 ± 20 | 1.5 and 1.49 | 31.3 ± 14.9 | 1.6 and 1.59 | 7.9 ± 2.5 | 31 | – | – | –
11 | COc1ccc(NC(=O)CSc2ncnc3c2sc2nc(N4CCOCC4)c4c(c23)CCCC4)cc1 [CMP-40] | – | – | – | – | 0 | 0 | 0 | 0 | – | 5.33 | 2.9 ± 0.1 | 96 ± 9 | – | – | strong activation of AVP2R-mediated cAMP accumulation
12 | CCCc1nc2oc3c(N4CCN(CCO)CC4)ncnc3c2c2c1CCCC2 [CMP-30] | – | – | – | – | 0 | – | 36 ± 16 | 1.55 | 27.1 ± 10.7 | 1.52 | 5.9 ± 3.8 | 29 | – | – | –
13 | O=C(CSc1ncnc2c1sc1nc(N3CCOCC3)c3c(c12)CCCC3)NCc1ccco1 [CMP-65] | – | – | – | – | 0 | 0 | 0 | 0 | – | 4.78 | 10 ± 1.7 | 96 ± 5 | – | – | strong activation of AVP2R-mediated cAMP accumulation
14 | OCCN1CCN(c2ncnc3c2sc2nc(-c4ccccc4)c4c(c23)CCC4)CC1 [CMP-37] | – | – | – | – | 0 | 0 | 28 ± 9 | 1.26 | 31.7 ± 1.2 | 0 | – | 0 | loss of activities across all formats | – | –
15 | CN1CCN(c2ncnc3c2sc2nc(N4CCCCC4)c4c(c23)CCCC4)CC1 [CMP-31] | – | – | – | – | 0 | 0 | 35 ± 14 | 1.5 and 1.54 | 29.6 ± 1.8 | 1.26 | 5.4 ± 1.7 | 24 ± 3 | – | – | –
16 | c1ccc(CCNc2ncnc3c2sc2nc(N4CCOCC4)c4c(c23)CCCC4)cc1 [CMP-42] | – | – | – | – | 0 | 0 | 0 | 0 | – | 0 | – | 0 | None of these analogs showed any CCK1R activity | – | –
